Laboratory results as given in patent US20230312528A1, “2-OXO-IMIDAZOLIDINE-4-CARBOXAMIDES AS NAV1.8 INHIBITORS” (Merck Sharp & Dohme LLC, priority 2020, published 2023).

Biological target: human NaV1.8 (Homo sapiens (Human), UniProt Q9Y5Y9)
Assay: Nav1.8 Qube automated patch-clamp assay
Format: cell-based
Settings: human NaV1.8 stably expressed in HEK 293 cells; automated 384-well patch-clamp; resting or inactivated state not specified
Procedure, shortened: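 Human NaV1.8 in HEK293 cells, automated whole-cell patch clamp at room temperature: 1 Hz train of ten 20 ms pulses to 10 mV from −90 mV, repolarization to −67 mV. First- and tenth-pulse peak currents gave resting and inactivated-state IC50 values via Hill fits.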

Chain of human NaV1.8 (Q9Y5Y9 whole entry): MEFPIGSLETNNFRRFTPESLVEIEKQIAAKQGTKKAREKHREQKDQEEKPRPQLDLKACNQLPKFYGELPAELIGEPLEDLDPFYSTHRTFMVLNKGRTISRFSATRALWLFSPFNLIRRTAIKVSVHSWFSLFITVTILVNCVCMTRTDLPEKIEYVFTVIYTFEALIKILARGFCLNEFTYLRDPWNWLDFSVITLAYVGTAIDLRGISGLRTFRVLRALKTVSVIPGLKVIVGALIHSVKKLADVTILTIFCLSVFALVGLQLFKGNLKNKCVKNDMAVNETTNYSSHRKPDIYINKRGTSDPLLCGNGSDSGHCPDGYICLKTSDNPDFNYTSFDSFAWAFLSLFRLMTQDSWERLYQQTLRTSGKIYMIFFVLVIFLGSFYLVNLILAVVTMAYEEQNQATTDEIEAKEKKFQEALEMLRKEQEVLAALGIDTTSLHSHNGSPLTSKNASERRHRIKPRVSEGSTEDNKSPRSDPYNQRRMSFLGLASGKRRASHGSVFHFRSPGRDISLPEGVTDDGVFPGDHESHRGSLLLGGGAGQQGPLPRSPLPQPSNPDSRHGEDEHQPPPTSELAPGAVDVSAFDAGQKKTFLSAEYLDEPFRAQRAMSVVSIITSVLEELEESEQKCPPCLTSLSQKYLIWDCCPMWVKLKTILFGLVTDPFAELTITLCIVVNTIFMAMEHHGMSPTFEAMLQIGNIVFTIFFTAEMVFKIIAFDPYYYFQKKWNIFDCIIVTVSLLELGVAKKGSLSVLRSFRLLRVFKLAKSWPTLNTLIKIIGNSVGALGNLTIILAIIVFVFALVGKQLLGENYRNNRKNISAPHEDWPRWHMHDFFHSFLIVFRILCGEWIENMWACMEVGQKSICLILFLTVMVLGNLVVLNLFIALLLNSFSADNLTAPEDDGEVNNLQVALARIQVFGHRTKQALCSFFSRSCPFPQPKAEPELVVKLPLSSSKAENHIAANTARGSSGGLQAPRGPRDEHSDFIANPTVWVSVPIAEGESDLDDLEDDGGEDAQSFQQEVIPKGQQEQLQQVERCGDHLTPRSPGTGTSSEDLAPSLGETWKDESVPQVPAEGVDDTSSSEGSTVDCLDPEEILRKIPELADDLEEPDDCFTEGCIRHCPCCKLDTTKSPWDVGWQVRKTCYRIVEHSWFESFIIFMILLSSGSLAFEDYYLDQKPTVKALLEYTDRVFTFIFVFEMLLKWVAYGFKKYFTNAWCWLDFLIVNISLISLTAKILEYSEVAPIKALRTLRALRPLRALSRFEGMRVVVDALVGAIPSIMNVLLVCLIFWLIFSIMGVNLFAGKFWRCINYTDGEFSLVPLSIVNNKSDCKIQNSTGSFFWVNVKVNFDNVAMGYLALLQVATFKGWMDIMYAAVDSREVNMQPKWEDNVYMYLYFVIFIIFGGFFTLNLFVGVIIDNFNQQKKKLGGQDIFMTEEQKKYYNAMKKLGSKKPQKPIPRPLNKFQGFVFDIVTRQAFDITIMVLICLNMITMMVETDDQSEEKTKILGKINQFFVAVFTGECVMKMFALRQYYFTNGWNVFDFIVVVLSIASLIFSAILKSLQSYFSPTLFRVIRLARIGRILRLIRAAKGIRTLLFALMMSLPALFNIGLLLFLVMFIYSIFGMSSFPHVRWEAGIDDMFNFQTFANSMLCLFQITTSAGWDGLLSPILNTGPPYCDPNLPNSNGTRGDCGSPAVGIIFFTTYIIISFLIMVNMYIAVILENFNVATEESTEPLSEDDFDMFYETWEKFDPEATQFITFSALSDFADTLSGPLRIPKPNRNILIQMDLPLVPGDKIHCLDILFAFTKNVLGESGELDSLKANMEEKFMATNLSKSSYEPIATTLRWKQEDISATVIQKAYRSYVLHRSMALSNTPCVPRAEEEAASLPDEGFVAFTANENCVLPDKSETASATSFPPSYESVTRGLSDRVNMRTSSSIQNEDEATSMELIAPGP

| IC50 [nM] | Structure (SMILES) |
| --- | --- |
| 58 | Cn1nc(C(NC(=O)[C@@H]2CNC(=O)N2)c2ccc(Cl)cc2)cc1C(F)(F)F (single isomer, unassigned) [Example 75A] |
| 115 | Cn1nc(C(NC(=O)[C@@H]2CNC(=O)N2)c2ccc(Cl)cc2)cc1C(F)(F)F (single isomer, unassigned) [Example 75B] |
| 26 | O=C1NC[C@@H](C(=O)NC(c2ccc(F)c(Cl)c2)C2C3CN(CC(F)(F)F)CC32)N1 (single isomer, unassigned) [Example 77A, (4S)-N-((1(R or S))-(3-chloro-4-fluorophenyl)(3-(2,2,2-trifluoroethyl)-3-azabicyclo[3.1.0]hexan-6-yl)methyl)-2-oxoimidazolidine-4-carboxamide] |
| 267 | O=C1NC[C@@H](C(=O)NC(c2ccc(F)c(Cl)c2)C2C3CN(CC(F)(F)F)CC32)N1 (single isomer, unassigned) [Example 77B, (4S)-N-((1(R or S))-(3-chloro-4-fluorophenyl)(3-(2,2,2-trifluoroethyl)-3-azabicyclo[3.1.0]hexan-6-yl)methyl)-2-oxoimidazolidine-4-carboxamide] |
| 4070 | CN1CCC(C(NC(=O)[C@@H]2CNC(=O)N2)c2ccc(F)c(Cl)c2F)CC1C(F)(F)F (single isomer, unassigned) [Example 78A, (S)-N-((R or S)-(3-chloro-2,4-difluoro-phenyl)((cis or trans)-1-methyl-2-(trifluoro-methyl)piperidin-4-yl)methyl)-2-oxoimidazolidine-4-carboxamide] |
| 9500 | CN1CCC(C(NC(=O)[C@@H]2CNC(=O)N2)c2ccc(F)c(Cl)c2F)CC1C(F)(F)F (single isomer, unassigned) [Example 78B, (S)-N-((R or S)-(3-chloro-2,4-difluoro-phenyl)((cis or trans)-1-methyl-2-(trifluoro-methyl)piperidin-4-yl)methyl)-2-oxoimidazolidine-4-carboxamide] |
| 8630 | CN1CCC(C(NC(=O)[C@@H]2CNC(=O)N2)c2ccc(F)c(Cl)c2F)CC1C(F)(F)F (single isomer, unassigned) [Example 78C, (S)-N-((R or S)-(3-chloro-2,4-difluoro-phenyl)((cis or trans)-1-methyl-2-(trifluoro-methyl)piperidin-4-yl)methyl)-2-oxoimidazolidine-4-carboxamide] |
| 4660 | CN1CCC(C(NC(=O)[C@@H]2CNC(=O)N2)c2ccc(F)c(Cl)c2F)CC1C(F)(F)F (single isomer, unassigned) [Example 78D, (S)-N-((R or S)-(3-chloro-2,4-difluoro-phenyl)((cis or trans)-1-methyl-2-(trifluoro-methyl)piperidin-4-yl)methyl)-2-oxoimidazolidine-4-carboxamide] |
| 24 | CN1CCC(C(NC(=O)[C@@H]2CNC(=O)N2)c2ccc(F)c(Cl)c2F)CC1C(F)(F)F (single isomer, unassigned) [Example 78E, (S)-N-((R or S)-(3-chloro-2,4-difluoro-phenyl)((cis or trans)-1-methyl-2-(trifluoro-methyl)piperidin-4-yl)methyl)-2-oxoimidazolidine-4-carboxamide] |

Continued, compound first:

| Structure (SMILES) | IC50 [nM] |
| --- | --- |
| Cc1nc2cc(C(NC(=O)[C@@H]3CNC(=O)N3)c3ccc(F)c(Cl)c3)ccc2s1 (single isomer, unassigned) [Example 66A, (S)—N—((R or S)-(3-chloro-4-fluorophenyl)(2-methylbenzo[d]thiazol-5-yl)methyl)-2-oxoimidazolidine-4-carboxamide] | 63 |
| Cc1nc2cc(C(NC(=O)[C@@H]3CNC(=O)N3)c3ccc(F)c(Cl)c3)ccc2s1 (single isomer, unassigned) [Example 66B, (S)—N—((R or S)-(3-chloro-4-fluorophenyl)(2-methylbenzo[d]thiazol-5-yl)methyl)-2-oxoimidazolidine-4-carboxamide] | 3.8 |
| O=C1NC[C@@H](C(=O)NC(c2ccc(F)c(Cl)c2)[C@@H]2CC[C@H]2C(F)(F)F)N1 (single isomer, unassigned) [Example 67A, (S)-N-((R or S)-(3-chloro-4-fluoro-phenyl)(trans-2-(trifluoromethyl)cyclobutyl)methyl)-2-oxoimidazolidine-4-carboxamide] | 182 |
| O=C1NC[C@@H](C(=O)NC(c2ccc(F)c(Cl)c2)[C@@H]2CC[C@H]2C(F)(F)F)N1 (single isomer, unassigned) [Example 67B, (S)-N-((R or S)-(3-chloro-4-fluoro-phenyl)(trans-2-(trifluoromethyl)cyclobutyl)methyl)-2-oxoimidazolidine-4-carboxamide] | 965 |
| O=C1NC[C@@H](C(=O)NC(c2ccc(F)c(Cl)c2)C2Cc3c(Cl)cccc32)N1 (single isomer, unassigned) [Example 70A, (S)-N-((R or S)-(3-chloro-4-fluoro-phenyl)((R or S)-2-chlorobicyclo[4.2.0]-octa-1(6),2,4-trien-7-yl)methyl)-2-oxoimidazolidine-4-carboxamide] | 26 |
| O=C1NC[C@@H](C(=O)NC(c2ccc(F)c(Cl)c2)C2Cc3c(Cl)cccc32)N1 (single isomer, unassigned) [Example 70B, (S)-N-((R or S)-(3-chloro-4-fluoro-phenyl)((R or S)-2-chlorobicyclo[4.2.0]-octa-1(6),2,4-trien-7-yl)methyl)-2-oxoimidazolidine-4-carboxamide] | 9 |
| O=C1NC[C@@H](C(=O)NC(c2ccc(F)c(Cl)c2)C2Cc3c(Cl)cccc32)N1 (single isomer, unassigned) [Example 70C, (S)-N-((R or S)-(3-chloro-4-fluoro-phenyl)((R or S)-2-chlorobicyclo[4.2.0]-octa-1(6),2,4-trien-7-yl)methyl)-2-oxoimidazolidine-4-carboxamide] | 117 |
| O=C1NC[C@@H](C(=O)NC(c2ccc(F)c(Cl)c2)C2Cc3c(Cl)cccc32)N1 (single isomer, unassigned) [Example 70D, (S)-N-((R or S)-(3-chloro-4-fluoro-phenyl)((R or S)-2-chlorobicyclo[4.2.0]-octa-1(6),2,4-trien-7-yl)methyl)-2-oxoimidazolidine-4-carboxamide] | 650 |
| O=C1NC[C@@H](C(=O)NC(c2ccc(F)c(Cl)c2)c2cc3cc(Cl)ccc3o2)N1 (single isomer, unassigned) [Example 73A, (S)-N-((R or S)-(3-chloro-4-fluorophenyl)(5-chlorobenzofuran-2-yl)methyl)-2-oxoimidazolidine-4-carboxamide] | 0.2 |
| O=C1NC[C@@H](C(=O)NC(c2ccc(F)c(Cl)c2)c2cc3cc(Cl)ccc3o2)N1 (single isomer, unassigned) [Example 73B, (S)-N-((R or S)-(3-chloro-4-fluorophenyl)(5-chlorobenzofuran-2-yl)methyl)-2-oxoimidazolidine-4-carboxamide] | 0.2 |
| O=C1NC[C@@H](C(=O)NC(c2ccc(Cl)cc2)c2cccc(OC(F)F)n2)N1 (single isomer, unassigned) [Example 74A, (S)-N-((R or S)-(4-chlorophenyl)(6-(difluoromethoxy)pyridin-2-yl)methyl)-2-oxoimidazolidine-4-carboxamide] | 19 |
| O=C1NC[C@@H](C(=O)NC(c2ccc(Cl)cc2)c2cccc(OC(F)F)n2)N1 (single isomer, unassigned) [Example 74B, (S)-N-((R or S)-(4-chlorophenyl)(6-(difluoromethoxy)pyridin-2-yl)methyl)-2-oxoimidazolidine-4-carboxamide] | 244 |
